Assay results as given in patent publication US20230025865A1, “COMPOSITIONS AND METHODS FOR […] […] OF Bcl-2 AND Bcl-xL ANTAGONISTS” (The Regents of the University of Michigan, priority 2019, published 2023).

How the values were obtained:
[1] = test system: small cell lung cancer (SCLC), colon, breast and acute lymphoblastic leukemia (ALL) cancer xenografts; details: cited from earlier work
[2] = test system: mantle cell lymphoma (B cell non-Hodgkin's lymphoma) cell line Mino, and Z138 and Rec; test: cytotoxicity, CellTiter96 AQueous cell proliferation assay; type: cell-based; details: single drug, 72 h
Method: (§1) Cells were seeded in a 96 well plate with 3000 cells per well and culture for 24 h, the appropriate amount of drug in a serial dilution manner was added to each well. After incubation for 72 h, Cell Proliferation was detected by CellTiter96™ AQueous Nonradioactive Cell Proliferation Assay Kit.

[3] = test system: erythroleukemic HEL, megakaryoblastic leukemic SET-2 and Ruxolitinib resistant HEL cell line; test: as above; type: cell-based; details: single drug, 72 h, HEL and SET-2 cell lines
Method: as §1

[4] = stability of APG-1252 during formulation preparation and lyophilization process (HPLC); type: physicochemical; details: final lyophilization product compared to original drug
Method: The contents of APG-1252 and its hydrolysis product BM-1244 were measured before and after formulation preparation and lyophilization process by method described above.

[5] = tissue distribution of APG-1252 and BMS-1244 (FIG. 15); type: in vivo, CD-1 IGS mice; details: for 48 hours
Text: The APG-1252 and BMS-1244 concentration versus time curve in different tissues in CD-1 IGS mice.

SMILES | combination with chemotherapeutic agents ([1]; in vivo) | tumor regression as single agent ([1]; twice weekly or weekly dose-schedule) | cytotoxicity alone [2] | cytotoxicity alone [3] | percentage of BM-1244 [4] [%] | BMS-1244 relative to APG-1252 [5]
Cc1c(S(C)(=O)=O)c(-c2cc(F)cc(N3CCN(c4ccc(NS(=O)(=O)c5ccc(N[C@H](CCN6CCC(C(=O)OCCCP(=O)(O)O)CC6)CSc6ccccc6)c(S(=O)(=O)C(F)(F)F)c5)cc4)CC3)c2)c(-c2ccc(Cl)cc2)n1C(C)C [APG-1252, (R)-(3-((1-(3-((4-(N-(4-(4-(3-(2-(4-chlorophenyl)-1-isopropyl-5-methyl-4-(methylsulfonyl)-1H-pyrrol-3-yl)-5-fluorophenyl)piperazin-1-yl)phenyl)sulfamoyl)-2-((trifluoromethyl)sulfonyl)phenyl)amino)-4-(phenylthio)butyl)piperidine-4-carbonyl)oxy)propyl)phosphonic acid] | strong synergy with the chemotherapeutic agents | complete and persistent tumor regression | similar | similar | 0.16 | –
Cc1c(S(C)(=O)=O)c(-c2cc(F)cc(N3CCN(c4ccc(NS(=O)(=O)c5ccc(N[C@H](CCN6CCC(C(=O)O)CC6)CSc6ccccc6)c(S(=O)(=O)C(F)(F)F)c5)cc4)CC3)c2)c(-c2ccc(Cl)cc2)n1C(C)C [BM-1244, (R)-1-(3-((4-(N-(4-(4-(3-(2-(4-chlorophenyl)-1-isopropyl-5-methyl-4-(methylsulfonyl)-1H-pyrrol-3-yl)-5-fluorophenyl)piperazin-1-yl)phenyl)sulfamoyl)-2-((trifluoromethyl)sulfonyl)phenyl)amino)-4-(phenylthio)butyl)piperidine-4-carboxylic acid] | – | – | – | – | – | less than 10%
